Source: patent US11534506B2, “Methods for cell labeling and medical imaging” (priority 2015, dated 2022)
Entries after “also recorded” stand apart in the source; their conditions may differ. Where two headings read alike, the source gives them in different places.

Columns and labels:
[1] = test system: natural killer cells; details: cited from earlier work
[2] = test system: macrophages, breast cancer cells, and myeloma cells; details: at 24 hours; cited from earlier work
[3] = test system: myeloma cells and natural killer cells; details: cited from earlier work
[4] = test system: 5T33 myeloma cells; details: cited from earlier work
[5] = test system: JAWSII mouse dendritic cells (mDCs); test: Labeling of cells with ^89Zr-DBN (cell-bound radioactivity); format: cell-based; details: 6×10^6 cells incubated 30 minutes with ~6 MBq
Protocol: (§1) B16-F10 Mouse melanoma cells (mMCs) from ATCC, Manassas, Va., USA, human mesenchymal stem cells (hMSCs) from patients and JAWSII mouse dendritic cells (mDCs) from ATCC, Manassas, Va., USA, were used for evaluating the ^89Zr-DBN based labeling method. The mMCs and hMSCs were cultured in complete DMEM (DMEM+10% FBS) and mDCs were cultured in complete alphaMEM (alpha MEM+4 mM L-glutamine+1 mM sodium pyruvate+5 ng/mL murine GM-CSF+20% FBS). The cultures were maintained in a humidified cell culture chamber (21% O2, 74% N2, 5% CO2) at 37° C.
(§2) The adherent cells were trypsinized and washed once with PBS and twice with HEPES buffered GIBCO Hanks Balanced Salt solution buffered (ThermoFisher, Atlanta, Ga., USA) (H-HBSS), pH 7.5. The cell labeling reaction was performed with ˜6×10^6 cells in 500 μl H-HBSS at pH 7.5. […]. After incubation, the cells were washed 4 times with appropriate volume of complete medium. The final labeling efficiency was calculated from the radioactivity bound to cells after all the washes.

[6] = test system: B16-F10 Mouse melanoma cells (mMCs); test: as above; format: cell-based; details: 6×10^6 cells incubated 30 minutes with ~6 MBq
Protocol: as §1, §2

[7] = test system: human mesenchymal stem cells (hMSCs); test: as above; format: cell-based; details: 6×10^6 cells incubated 30 minutes with ~6 MBq
Protocol: as §1, §2

[8] = test system: mMCs, hMSCs and mDCs; test: Labeling of cells with ^89Zr(HPO4)2 and ^89Zr-DBN, labeling efficiency over all cell types; format: cell-based, mouse, human
Protocol: The adherent cells were trypsinized and washed once with PBS and twice with HEPES buffered GIBCO Hanks Balanced Salt solution buffered (ThermoFisher, Atlanta, Ga., USA) (H-HBSS), pH 7.5. The cell labeling reaction was performed with ˜6×10^6 cells in 500 μl H-HBSS at pH 7.5. […] After incubation, the cells were washed 4 times with appropriate volume of complete medium. The final labeling efficiency was calculated from the radioactivity bound to cells after all the washes.

[9] = test system: mMCs, hMSCs and mDCs; test: Incorporation of ^89Zr-DBN in protein fraction (subcellular protein fractionation); format: cell-based, mouse, human; details: days 1, 4 and 7 after labeling; all cell types studied
Protocol: To understand the sub-cellular localization of the label, incorporation of ^89Zr-DBN into different protein fractions in mMCs, hMSCs and mDCs was evaluated using a subcellular protein fractionation kit (Piercenet Thermo Scientific) at day 1, 4 and 7 post-labeling. The cytosolic proteins, hydrophobic membrane proteins, nuclear proteins and cytoskeletal proteins were isolated and each protein fraction was counted for radioactivity using a 2480 Wizard^2 automatic gamma counter (Perkin Elmer, Waltham, Mass., USA).

[10] = test system: scAAV1-Cre and AAV2-GFP; test: Labeling of adeno-associated viruses with ^89Zr-DBN; details: after 30 minutes of labeling
Protocol: Post-labeling, the ^89Zr-DBN-AAVs were purified from free label and reaction mixture using size exclusion PD-10 desalting columns. The eluted virus in fractions were quantified using protein assay and radioactivity elution pattern was recorded.

[11] = test system: mMCs, hMSCs and mDCs; test: Efflux of ^89Zr-DBN from labeled cells; details: over 7 days post-labeling, medium replaced daily
Protocol: The medium was replaced with fresh medium daily for 7 days and radioactivity in the replaced medium was counted. For mDCs with mix of adherent and suspension cells, the plate was centrifuged at 1000 rpm for 10 minutes before replacing the medium to avoid loss of unattached ^89Zr-labeled cells.

[12] = test system: C6 glioma cells; details: cited from earlier work
[13] = test system: Leukocytes, Lymphocytes, HPCs; details: in 30 minutes; cited from earlier work
[14] = test system: hematopoietic progenitor cells (HPCs); details: in 24-96 hours; cited from earlier work
[15] = test system: lymphocytes; details: cited from earlier work
[16] = test system: mMCs, hMSCs and mDCs; test: ApoTox-Glo viability/cytotoxicity and caspase 3/7 apoptosis assay; format: cell-based, mouse, human; details: 2 μM for 16 hours
Protocol: The effect of radiolabeling on cellular viability was also assessed using the ApoTox-Glo viability, cytotoxicity and caspase 3/7 apoptosis assay (Promega Corporation, Madison, Wis., USA). Unlabeled cells served as control. A known number of unlabeled and ^89Zr-labeled cells (˜10^4/well) were plated in a 96-well culture plate. The culture medium was replaced daily and maintained at 37° C. in a CO2 incubator. At day 7, cell viability, cytotoxicity and apoptosis was quantified in triplicate using the ApoTox-Glo assay. As positive controls, cells were incubated with 30 μg/mL digitonin for 30 minutes for the viability and cytotoxicity assays, while 2 μM staurosporine was added for 16 hours for the caspase 3/7 dependent apoptosis assay.

For `c1cnc2c([O][89Zr]([O]c3cccc4cccnc34)([O]c3cccc4cccnc34)[O]c3cccc4cccnc34)cccc2c1` [^89Zr-oxine], the “viability of radiolabeled cells” value ([1]; after 6 days) is given as 20-30%, the “viability of radiolabeled cells” value ([1]; over the first 24 hours) is given as 60-100% and the efflux [2] is given as 10-29%. For the same molecule, the cell labeling yield ([3]; in 30 minutes) was ~32% cell labeling yield in 30, the “cell viability after labeling” value ([3]; possibly due to oxine exposure) was “Loss of cell viability possibly” and the “viability of labeled cells” value ([4]; in first 24 hours) was 76.3±3.2%. The “viability of labeled cells, initial” value ([4]; starting value before the decline) was 93%.

With “^89Zr-labeled p-isothiocyanato-benzyl-desferrioxamine [^89Zr-DBN]” the “Radioactivity concentration of labeled cells” value [5] was 0.39±0.20 MBq/10^6 cells, the “Radioactivity concentration of labeled cells” value [6] was 0.50±0.10 MBq/10^6 cells and the “Radioactivity concentration of labeled cells” value [7] was 0.47±0.10 MBq/10^6 cells. The “Radioactivity concentrations of labeled cells achieved without a negative effect on cellular viability” value [8] was “up to 0.5 MBq/1×10^6 cells”, the cell labeling efficiency ([8]; 30 minutes labeling at 37° C., ~6×10^6 cells, ~6 MBq, cell-bound radioactivity after washes, depending on cell type) was 30-50% and the “^89Zr-radioactivity incorporated in hydrophobic membrane protein fraction” value [9] was ~99%. For the same molecule, the “viral labeling yield (radioactivity concentration)” value [10] was ~20 mCi/10^14 viral particles and the “efflux of ^89Zr-radioactivity from labeled cells” value [11] was “negligible efflux; also recorded: no efflux of radiolabel was observed”.

In the case of `CNC(=S)NN=CC(C)=NNC(=S)NC.[64Cu]` [^64Cu-PTSM, ^64Cu-pyruvaldehyde-bis(N4-methylthiosemicarbazone)], the “extent of efflux (as high as)” value ([12]; C6 glioma cells, in 24-96 hours) is listed as 70-80%, the cell labeling yield ([12]; in 5 hours) is listed as 70-85% cell labeling yield in and the effluxed radioactivity ([12]; in 24 hours) is listed as “cells (~80% effluxed in 24”.

For `[In+3].[O-]c1cccc2cccnc12.[O-]c1cccc2cccnc12.[O-]c1cccc2cccnc12` [^111In-oxine], the cell labeling yield [13] is given as ~80% cell labeling yield in 30, the “extent of efflux (as high as)” value [14] is given as 70-80% and the “extent of efflux (as high as)” value ([15]; in 24-96 hours) is given as 70-80%. The effluxed radioactivity ([15]; in 24 hours) was “(~70% effluxed in 24 hours)”.

With `CN[C@@H]1C[C@H]2O[C@@](C)([C@@H]1OC)n1c3ccccc3c3c4c(c5c6ccccc6n2c5c31)C(=O)NC4` [staurosporine] the “apoptosis (caspase 3/7), positive control” value [16] was “apoptosis was increased”.
